Test results from ChEMBL document CHEMBL1201862, “PubChem BioAssay data set” (2004).
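Method: 48-hour compound exposure of cells in 96-well plates, five concentrations, linear interpolation of endpoints. Here, GI50 denotes the concentration required for 50% inhibition of growth.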 Calls of active or inactive are those of the source. No stated cut-off is given here; in the data, active = GI50 up to about 1.1 µM and inactive = higher.

Tests used:
Test in all cases: NCI anticancer screen, dose series, 48 h
RXF 393 = tested on: RXF 393
CCRF-CEM = tested on: CCRF-CEM
A549 = tested on: A549
A498 = tested on: A498
HOP-18 = tested on: HOP-18
Malme-3M = tested on: Malme-3M
TK-10 = tested on: TK-10
EKVX = tested on: EKVX
SNB-19 = tested on: SNB-19
SNB-78 = tested on: SNB-78
HCT-116 = tested on: HCT-116
DMS-114 = tested on: DMS-114
M14 = tested on: M14
SK-MEL-2 = tested on: SK-MEL-2
NCI-H522 = tested on: NCI-H522
OVCAR-4 = tested on: OVCAR-4
HOP-62 = tested on: HOP-62
U-251 = tested on: U-251
DLD-1 = tested on: DLD-1
OVCAR-8 = tested on: OVCAR-8
CAKI-1 = tested on: CAKI-1
UO-31 = tested on: UO-31
DMS-273 = tested on: DMS-273
HCC 2998 = tested on: HCC 2998
COLO 205 = tested on: COLO 205
SK-MEL-28 = tested on: SK-MEL-28
786-0 = tested on: 786-0
NCI-H226 = tested on: NCI-H226
SF-295 = tested on: SF-295
SW-620 = tested on: SW-620
LXFL 529 = tested on: LXFL 529
SNB-75 = tested on: SNB-75
IGROV-1 = tested on: IGROV-1
SF-268 = tested on: SF-268
HCT-15 = tested on: HCT-15
SK-MEL-5 = tested on: SK-MEL-5
NCI-H460 = tested on: NCI-H460
RPMI-8226 = tested on: RPMI-8226
SR = tested on: SR
K562 = tested on: K562
SF-539 = tested on: SF-539
HL-60 = tested on: HL-60
SN12C = tested on: SN12C
NCI-H23 = tested on: NCI-H23
ACHN = tested on: ACHN
HT-29 = tested on: HT-29
MOLT-4 = tested on: MOLT-4
HOP-92 = tested on: HOP-92
M19-MEL = tested on: M19-MEL
KM12 = tested on: KM12
UACC-257 = tested on: UACC-257
XF498 = tested on: XF498
KM-20L2 = tested on: KM-20L2
SK-OV-3 = tested on: SK-OV-3
UACC-62 = tested on: UACC-62
OVCAR-5 = tested on: OVCAR-5
LOX IMVI = tested on: LOX IMVI
OVCAR-3 = tested on: OVCAR-3

## COC(=O)C1=C(C)C(=O)[C@H]2C(C(=O)OC)CCCC[C@@H]12 (stereo not given in full)
RXF 393
  GI50: > 100 µM (inactive)
CCRF-CEM
  GI50: 40.5 µM (inactive)
A549
  GI50: > 100 µM (inactive)
A498
  GI50: > 100 µM (inactive)
HOP-18
  GI50: > 100 µM (inactive)
Malme-3M
  GI50: > 100 µM (inactive)
TK-10
  GI50: > 100 µM (inactive)
EKVX
  GI50: > 100 µM (inactive)
SNB-19
  GI50: > 100 µM (inactive)
SNB-78
  GI50: > 100 µM (inactive)
HCT-116
  GI50: 83.9 µM (inactive)
DMS-114
  GI50: 20.9 µM (inactive)
M14
  GI50: > 100 µM (inactive)
SK-MEL-2
  GI50: > 100 µM (inactive)
NCI-H522
  GI50: 29.4 µM (inactive)
OVCAR-4
  GI50: > 100 µM (inactive)
HOP-62
  GI50: > 100 µM (inactive)
U-251
  GI50: > 100 µM (inactive)
DLD-1
  GI50: > 100 µM (inactive)
OVCAR-8
  GI50: > 100 µM (inactive)
CAKI-1
  GI50: > 100 µM (inactive)
UO-31
  GI50: > 100 µM (inactive)
DMS-273
  GI50: 90.2 µM (inactive)
HCC 2998
  GI50: > 100 µM (inactive)
COLO 205
  GI50: > 100 µM (inactive)
SK-MEL-28
  GI50: > 100 µM (inactive)
786-0
  GI50: > 100 µM (inactive)
NCI-H226
  GI50: > 100 µM (inactive)
SF-295
  GI50: > 100 µM (inactive)
SW-620
  GI50: > 100 µM (inactive)
LXFL 529
  GI50: > 100 µM (inactive)
SNB-75
  GI50: > 100 µM (inactive)
IGROV-1
  GI50: > 100 µM (inactive)
SF-268
  GI50: > 100 µM (inactive)
HCT-15
  GI50: > 100 µM
SK-MEL-5
  GI50: 72.9 µM (inactive)
NCI-H460
  GI50: > 100 µM (inactive)
RPMI-8226
  GI50: 66.2 µM (inactive)
SR
  GI50: 49.1 µM (inactive)
K562
  GI50: 55.8 µM (inactive)
SF-539
  GI50: > 100 µM (inactive)
HL-60
  GI50: 30.2 µM (inactive)
SN12C
  GI50: > 100 µM (inactive)
NCI-H23
  GI50: > 100 µM (inactive)
ACHN
  GI50: > 100 µM (inactive)
HT-29
  GI50: > 100 µM (inactive)
MOLT-4
  GI50: 54.6 µM (inactive)
HOP-92
  GI50: 32.3 µM (inactive)
M19-MEL
  GI50: > 100 µM (inactive)
KM12
  GI50: > 100 µM (inactive)
UACC-257
  GI50: 45.6 µM (inactive)
XF498
  GI50: 89.9 µM (inactive)
KM-20L2
  GI50: > 100 µM (inactive)
SK-OV-3
  GI50: > 100 µM (inactive)
UACC-62
  GI50: > 100 µM (inactive)
OVCAR-5
  GI50: > 100 µM (inactive)

## O=C(O)/C(Cl)=C(\Cl)Nc1cccc(C(F)(F)F)c1
RXF 393
  GI50: > 100 µM (inactive)
CCRF-CEM
  GI50: > 100 µM (inactive)
A549
  GI50: > 100 µM (inactive)
HOP-18
  GI50: > 100 µM (inactive)
Malme-3M
  GI50: > 100 µM (inactive)
TK-10
  GI50: > 100 µM (inactive)
EKVX
  GI50: > 100 µM (inactive)
SNB-78
  GI50: > 100 µM (inactive)
DMS-114
  GI50: > 100 µM (inactive)
M14
  GI50: 18 µM (inactive)
OVCAR-4
  GI50: > 100 µM (inactive)
HOP-62
  GI50: > 100 µM (inactive)
U-251
  GI50: > 100 µM (inactive)
DLD-1
  GI50: > 100 µM (inactive)
OVCAR-8
  GI50: > 100 µM (inactive)
CAKI-1
  GI50: > 100 µM (inactive)
UO-31
  GI50: > 100 µM (inactive)
DMS-273
  GI50: > 100 µM (inactive)
HCC 2998
  GI50: > 100 µM (inactive)
COLO 205
  GI50: > 100 µM (inactive)
SK-MEL-28
  GI50: > 100 µM (inactive)
786-0
  GI50: > 100 µM (inactive)
LOX IMVI
  GI50: > 100 µM (inactive)
SF-295
  GI50: > 100 µM (inactive)
SW-620
  GI50: > 100 µM (inactive)
LXFL 529
  GI50: > 100 µM (inactive)
SNB-75
  GI50: > 100 µM (inactive)
IGROV-1
  GI50: > 100 µM (inactive)
SF-268
  GI50: > 100 µM (inactive)
HCT-15
  GI50: > 100 µM
NCI-H460
  GI50: > 100 µM (inactive)
K562
  GI50: > 100 µM (inactive)
HL-60
  GI50: 39.5 µM (inactive)
SN12C
  GI50: > 100 µM (inactive)
NCI-H23
  GI50: > 100 µM (inactive)
ACHN
  GI50: > 100 µM (inactive)
HT-29
  GI50: > 100 µM (inactive)
HOP-92
  GI50: 9.2 µM (inactive)
M19-MEL
  GI50: > 100 µM (inactive)
XF498
  GI50: > 100 µM (inactive)
KM-20L2
  GI50: > 100 µM (inactive)
SK-OV-3
  GI50: > 100 µM (inactive)
UACC-62
  GI50: > 100 µM (inactive)
OVCAR-3
  GI50: > 100 µM (inactive)
